Results on 24 compounds are retold here after patent US8969325B2, “TRPV1 antagonists” (AbbVie Inc., priority 2011, dated 2015).

Assay [1] concerns the target T1, human TRPV1 (Homo sapiens (Human), UniProt Q8NER1). As to the kind of experiment: Capsaicin Activation Assay (intracellular Ca2+, FLIPR). Format: cell-based. The settings on record: recombinant HEK293 cells expressing hTRPV1, 50 nM capsaicin. An outline of the steps: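 Ca2+ fluorescence was recorded by FLIPR every 1 to 5 seconds in HEK293 cells, clonally selected for stable human TRPV1 expression and plated one day ahead. Test compounds came as serial dilutions of 10 mM DMSO stocks.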

In assay [2] the target is T1, human TRPV1. As to the kind of experiment: Acid Activation Assay (pH 5.0, intracellular Ca2+, FLIPR). Format: cell-based. The settings on record: percentage of the maximal pH 5.0-induced response remaining; recombinant HEK293 hTRPV1 cells; maximum concentration tested 37.5 μM. The procedure, abridged:
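Readout: peak [Ca2+]i fluorescence over baseline on FLIPR, expressed as percentage remaining of the maximal pH 5.0-evoked signal. Stable hTRPV1-HEK293 cells with Calcium-4 dye received compound (12 half-log concentrations, maximum 37.5 μM) 3 min before acidic pH 5.0 buffer.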

T1 sequence (Q8NER1 whole entry): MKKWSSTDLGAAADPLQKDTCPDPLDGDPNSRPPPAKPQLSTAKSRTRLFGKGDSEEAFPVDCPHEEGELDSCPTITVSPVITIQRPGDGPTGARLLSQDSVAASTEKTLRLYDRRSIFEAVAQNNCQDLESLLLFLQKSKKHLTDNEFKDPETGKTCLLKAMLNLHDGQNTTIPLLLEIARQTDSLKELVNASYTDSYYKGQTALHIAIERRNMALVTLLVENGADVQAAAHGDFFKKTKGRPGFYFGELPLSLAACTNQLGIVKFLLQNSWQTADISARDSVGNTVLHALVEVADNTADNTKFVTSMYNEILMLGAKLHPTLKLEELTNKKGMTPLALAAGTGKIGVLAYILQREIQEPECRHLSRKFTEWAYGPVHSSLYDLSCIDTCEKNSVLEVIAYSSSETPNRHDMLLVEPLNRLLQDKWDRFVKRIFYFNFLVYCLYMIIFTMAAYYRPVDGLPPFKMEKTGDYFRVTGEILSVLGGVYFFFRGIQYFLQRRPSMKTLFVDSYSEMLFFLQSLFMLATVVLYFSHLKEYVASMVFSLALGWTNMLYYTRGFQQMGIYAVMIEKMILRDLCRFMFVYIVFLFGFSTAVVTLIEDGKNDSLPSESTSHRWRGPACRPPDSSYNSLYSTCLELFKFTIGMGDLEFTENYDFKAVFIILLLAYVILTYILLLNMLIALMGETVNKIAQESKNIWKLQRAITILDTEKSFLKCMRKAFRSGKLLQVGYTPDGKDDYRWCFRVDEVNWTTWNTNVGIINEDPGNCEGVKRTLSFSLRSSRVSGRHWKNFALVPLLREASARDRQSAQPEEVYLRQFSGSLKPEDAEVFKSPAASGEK

One may read the IC50 as the point on the concentration scale where inhibition reaches its midpoint. For the compound `CN1C(=O)CCc2ccc(NC(=O)N[C@H]3CC4(CCC4)Oc4ccc(F)cc43)cc21` [Example 286, 1-[(4S)-6-fluoro-3,4-dihydrospiro[chromene-2,1′-cyclobutan]-4-yl]-3-(1-methyl-2-oxo-1,2,3,4-tetrahydroquinolin-7-yl)urea], the IC50 at human TRPV1 [1] came to 260 nM. Besides, on human TRPV1 [2], the “human TRPV1 H^+ (max % remain)” value amounted to 68%.
In the same order, the values of `CN1C(=O)CCc2ccc(NC(=O)N[C@@H]3CCOc4ccccc43)cc21` [Example 258, 1-[(4R)-3,4-dihydro-2H-chromen-4-yl]-3-(1-methyl-2-oxo-1,2,3,4-tetrahydroquinolin-7-yl)urea] are 170 nM and 72%.
For the compound `CCC1(CC)C[C@@H](NC(=O)Nc2ccc3c(c2)NC(=O)N(CCO)C3)c2ccc(C(F)(F)F)cc2O1` [Example 46, 1-[(4R)-2,2-diethyl-7-(trifluoromethyl)-3,4-dihydro-2H-chromen-4-yl]-3-[3-(2-hydroxyethyl)-2-oxo-1,2,3,4-tetrahydroquinazolin-7-yl]urea], the IC50 at human TRPV1 [1] is 367 nM. The “human TRPV1 H^+ (max % remain)” value on human TRPV1 [2] was 0%.
For `CCC1(CC)C[C@@H](NC(=O)Nc2ccc3c(c2)NC(=O)N(C)C3)c2ccccc2O1` [Example 178, 1-[(4R)-2,2-diethyl-3,4-dihydro-2H-chromen-4-yl]-3-(3-methyl-2-oxo-1,2,3,4-tetrahydroquinazolin-7-yl)urea], in that order: 72 nM and 52%.
In the same order, the values of `CC1(C)C[C@@H](NC(=O)Nc2ccc3c(c2)NC(=O)CO3)c2ccc(F)c(F)c2O1` [Example 117, 1-[(4R)-7,8-difluoro-2,2-dimethyl-3,4-dihydro-2H-chromen-4-yl]-3-(3-oxo-3,4-dihydro-2H-1,4-benzoxazin-6-yl)urea] are 120 nM and 99%.
For `C[C@@]1(CF)C[C@@H](NC(=O)Nc2ccc3c(c2)NC(=O)CO3)c2ccc(C(F)(F)F)cc2O1` [Example 127, 1-[(2S,4R)-2-(fluoromethyl)-2-methyl-7-(trifluoromethyl)-3,4-dihydro-2H-chromen-4-yl]-3-(3-oxo-3,4-dihydro-2H-1,4-benzoxazin-6-yl)urea], in that order: 67 nM and 100%.
On to `CN1C(=O)CCc2ccc(NC(=O)N[C@@H]3C[C@](C)(C(F)(F)F)Oc4ccccc43)cc21` [Example 326, 1-(1-methyl-2-oxo-1,2,3,4-tetrahydroquinolin-7-yl)-3-[(2R,4R)-2-methyl-2-(trifluoromethyl)-3,4-dihydro-2H-chromen-4-yl]urea], for which, on human TRPV1 [1], the IC50 is 32 nM. On human TRPV1 [2], the “human TRPV1 H^+ (max % remain)” value was determined as 80%.
For `O=C(Nc1ccc2c(c1)NC(=O)N(CCO)C2)N[C@@H]1CC(CF)(CF)Oc2ccc(F)cc21` [Example 49, 1-[(4R)-6-fluoro-2,2-bis(fluoromethyl)-3,4-dihydro-2H-chromen-4-yl]-3-[3-(2-hydroxyethyl)-2-oxo-1,2,3,4-tetrahydroquinazolin-7-yl]urea], in that order: 6100 nM and 8%.
`COCCN(C)C1Cc2ccc(NC(=O)N[C@@H]3CC(CF)(CF)Oc4cc(Cl)ccc43)cc2NC1=O` (stereo partly drawn) [Example 306, 1-[(4R)-7-chloro-2,2-bis(fluoromethyl)-3,4-dihydro-2H-chromen-4-yl]-3-{3-[(2-methoxyethyl)(methyl)amino]-2-oxo-1,2,3,4-tetrahydroquinolin-7-yl}urea]: on human TRPV1 [1], the IC50 came out at 440 nM. Further, the “human TRPV1 H^+ (max % remain)” value at human TRPV1 [2] was 31%.
In the same order, the values of `O=C(Nc1ccc2c(c1)NC(=O)N(CCO)C2)N[C@@H]1CC(CF)(CF)Oc2cc(C(F)(F)F)ccc21` [Example 309, 1-[(4R)-2,2-bis(fluoromethyl)-7-(trifluoromethyl)-3,4-dihydro-2H-chromen-4-yl]-3-[3-(2-hydroxyethyl)-2-oxo-1,2,3,4-tetrahydroquinazolin-7-yl]urea] are 18000 nM and 36%.
For `CN1C(=O)CCc2ccc(NC(=O)N[C@@H]3CCc4cc(F)ccc43)cc21` [Example 285, 1-[(1R)-5-fluoro-2,3-dihydro-1H-inden-1-yl]-3-(1-methyl-2-oxo-1,2,3,4-tetrahydroquinolin-7-yl)urea], in that order: 55 nM and 27%.
For `CN1C(=O)CCc2ccc(NC(=O)N[C@@H]3CC(C)(C)Oc4cc(F)ccc43)cc21` [Example 253, 1-[(4R)-7-fluoro-2,2-dimethyl-3,4-dihydro-2H-chromen-4-yl]-3-(1-methyl-2-oxo-1,2,3,4-tetrahydroquinolin-7-yl)urea], in that order: 110 nM and 31%.
With `CCCC1(CCC)C[C@@H](NC(=O)Nc2ccc3c(c2)NC(=O)N(C)C3)c2cccc(F)c2O1` [Example 190, 1-[(4R)-8-fluoro-2,2-dipropyl-3,4-dihydro-2H-chromen-4-yl]-3-(3-methyl-2-oxo-1,2,3,4-tetrahydroquinazolin-7-yl)urea], the IC50 on human TRPV1 [1] came to 450 nM. Besides, at human TRPV1 [2], the “human TRPV1 H^+ (max % remain)” value is given as 79%.
In the same order, the values of `CN1Cc2ccc(NC(=O)N[C@H]3CC(C)(C)Oc4ccc(F)cc43)cc2NC1=O` [Example 204, 1-[(4S)-6-fluoro-2,2-dimethyl-3,4-dihydro-2H-chromen-4-yl]-3-(3-methyl-2-oxo-1,2,3,4-tetrahydroquinazolin-7-yl)urea] are 1600 nM and 55%.
In the same order, the values of `O=C1COc2ccc(NC(=O)N[C@@H]3CCOc4ccc(F)cc43)cc2N1` [Example 118, 1-[(4R)-6-fluoro-3,4-dihydro-2H-chromen-4-yl]-3-(3-oxo-3,4-dihydro-2H-1,4-benzoxazin-6-yl)urea] are above 38000 nM and 101%.
In the same order, the values of `CCCC1(CCC)C[C@@H](NC(=O)Nc2ccc3c(c2)N(C)C(=O)CC3)c2cc(F)ccc2O1` [Example 266, 1-[(4R)-6-fluoro-2,2-dipropyl-3,4-dihydro-2H-chromen-4-yl]-3-(1-methyl-2-oxo-1,2,3,4-tetrahydroquinolin-7-yl)urea] are 65 nM and 54%.
As for `CCC1(CC)C[C@@H](NC(=O)Nc2ccc3c(c2)NC(=O)N(C)C3)c2ccc(C(F)(F)F)cc2O1` [Example 180, 1-[(4R)-2,2-diethyl-7-(trifluoromethyl)-3,4-dihydro-2H-chromen-4-yl]-3-(3-methyl-2-oxo-1,2,3,4-tetrahydroquinazolin-7-yl)urea], the IC50 at human TRPV1 [1] was 230 nM. The “human TRPV1 H^+ (max % remain)” value on human TRPV1 [2] is 12%.
In the same order, the values of `CN1C(=O)CCc2ccc(NC(=O)N[C@@H]3CC(C)(C)Oc4c3ccc(F)c4Cl)cc21` [Example 275, 1-[(4R)-8-chloro-7-fluoro-2,2-dimethyl-3,4-dihydro-2H-chromen-4-yl]-3-(1-methyl-2-oxo-1,2,3,4-tetrahydroquinolin-7-yl)urea] are 920 nM and 83%.
For `O=C1CCc2ccc(NC(=O)N[C@@H]3CC(CF)(CF)Oc4c(F)cc(F)cc43)cc2N1` [Example 214, 1-[(4R)-6,8-difluoro-2,2-bis(fluoromethyl)-3,4-dihydro-2H-chromen-4-yl]-3-(2-oxo-1,2,3,4-tetrahydroquinolin-7-yl)urea], in that order: 180 nM and 40%.
For `CN1C(=O)NCc2c(NC(=O)N[C@@H]3CC(C)(C)Oc4c(F)cccc43)cccc21` [Example 135, 1-[(4R)-8-fluoro-2,2-dimethyl-3,4-dihydro-2H-chromen-4-yl]-3-(1-methyl-2-oxo-1,2,3,4-tetrahydroquinazolin-5-yl)urea], in that order: 31 nM and 32%.
For `CCC1(CC)C[C@@H](NC(=O)Nc2ccc3c(c2)NC(=O)N(CCO)C3)c2ccc(Cl)cc2O1` [Example 47, 1-[(4R)-7-chloro-2,2-diethyl-3,4-dihydro-2H-chromen-4-yl]-3-[3-(2-hydroxyethyl)-2-oxo-1,2,3,4-tetrahydroquinazolin-7-yl]urea], at human TRPV1 [1], the concentration for half-maximal inhibition (IC50) came out at 169 nM. Further, the “human TRPV1 H^+ (max % remain)” value at human TRPV1 [2] worked out at 0%.
On to `CCC1(CC)C[C@@H](NC(=O)Nc2ccc3c(c2)NC(=O)CC3)c2ccc(Cl)c(Cl)c2O1` [Example 226, 1-[(4R)-7,8-dichloro-2,2-diethyl-3,4-dihydro-2H-chromen-4-yl]-3-(2-oxo-1,2,3,4-tetrahydroquinolin-7-yl)urea], for which the IC50 at human TRPV1 [1] was determined as 100 nM. Further, on human TRPV1 [2], the “human TRPV1 H^+ (max % remain)” value is on record as 12%.
On to `C[C@]1(C(F)F)C[C@@H](NC(=O)Nc2ccc3c(c2)NC(=O)CO3)c2ccccc2O1` [Example 131, 1-[(2R,4R)-2-(difluoromethyl)-2-methyl-3,4-dihydro-2H-chromen-4-yl]-3-(3-oxo-3,4-dihydro-2H-1,4-benzoxazin-6-yl)urea], for which the IC50 on human TRPV1 [1] came out at 360 nM. Also, the “human TRPV1 H^+ (max % remain)” value at human TRPV1 [2] is listed as 89%.
As to `O=C1CCc2ccc(NC(=O)N[C@H]3CCOc4cc(OC(F)(F)F)ccc43)cc2N1` [Example 234, 1-(2-oxo-1,2,3,4-tetrahydroquinolin-7-yl)-3-[(4S)-7-(trifluoromethoxy)-3,4-dihydro-2H-chromen-4-yl]urea], the IC50 on human TRPV1 [1] amounted to 90 nM. Besides, the “human TRPV1 H^+ (max % remain)” value on human TRPV1 [2] amounted to 27%.
